Patent publication US20190144423A1, “AMIDE-SUBSTITUTED PYRIDINYLTRIAZOLE DERIVATIVES AND USES THEREOF” (BAYER PHARMA AKTIENGESELLSCHAFT, priority 2016, published 2019)

Legend:
human V1a receptor = biological target: T1, human V1a receptor (Homo sapiens, UniProt P37288); assay: Cellular in vitro assay for determining vasopressin receptor activity (V1a cell line, aequorin luminescence); type: cell-based; conditions: Table 1A, compounds of the invention; for IC50: CHO cell line transfected with human V1a receptor, antagonism of [Arg8]-vasopressin at EC50, read-out: IC50 hV1a; for ratio IC50 hV2/hV1a: selectivity ratio
T1 construct: expressed in transfected cells; host or cells: CHO K1 (ATCC), also stably transfected with a modified aequorin
T1 sequence (P37288 whole entry): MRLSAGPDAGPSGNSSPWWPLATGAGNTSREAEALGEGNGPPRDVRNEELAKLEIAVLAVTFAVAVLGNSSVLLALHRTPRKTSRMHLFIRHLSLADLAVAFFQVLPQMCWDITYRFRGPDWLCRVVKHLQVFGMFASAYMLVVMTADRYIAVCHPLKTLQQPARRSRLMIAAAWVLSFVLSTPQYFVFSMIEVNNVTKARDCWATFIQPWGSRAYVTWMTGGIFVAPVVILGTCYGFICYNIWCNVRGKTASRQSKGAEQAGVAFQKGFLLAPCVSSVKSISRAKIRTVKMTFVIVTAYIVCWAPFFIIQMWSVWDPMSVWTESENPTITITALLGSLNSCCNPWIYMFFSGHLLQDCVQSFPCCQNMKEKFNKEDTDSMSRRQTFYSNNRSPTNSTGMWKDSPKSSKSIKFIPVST
Description: (§1) B-1. Cellular In Vitro Assay for Determining Vasopressin Receptor Activity
(§2) The identification of agonists and antagonists of the V1a and V2 vasopressin receptors from humans, rats and dogs as well as the quantification of the activity of the compounds of the invention is carried out using recombinant cell lines. These cell lines originally derive from a hamster's ovary epithelial cell (Chinese Hamster Ovary, CHO K1, ATCC: American Type Culture Collection, Manassas, Va. 20108, USA). The test cell lines constitutively express the human, rat or dog V1a or V2 receptors. In case of the Gαq-coupled V1a receptors, cells are also stably transfected with a modified form of the calcium-sensitive photoproteins aequorin (human and rat V1a) or obelin (dog V1a), which, after reconstitution with the cofactor coelenterazine, emit light when there are increases in free calcium concentrations [Rizzuto R, Simpson A W, Brini M, Pozzan T, Nature 358, 325-327 (1992); Illarionov B A, Bondar V S, Illarionova V A, Vysotski E S, Gene 153 (2), 273-274 (1995)]. The resulting vasopressin receptor cells react to stimulation of the recombinantly expressed V1a receptors by intracellular release of calcium ions, which can be quantified by the resulting photoprotein luminescence. The Gs-coupled V2 receptors are stably transfected into cell lines expressing the gene for firefly luciferase under control of a CRE-responsible promoter. Activation of V2 receptors induces the activation of the CRE-responsive promoter via cAMP increase, thereby inducing the expression of firefly luciferase. The light emitted by photoproteins of V1a cell lines as well as the light emitted by firefly luciferase of V2 cell lines corresponds to the activation or inhibition of the respective vasopressin receptor. The bioluminescence of the cell lines is detected using a suitable luminometer [Milligan G, Marshall F, Rees S, Trends in Pharmacological Sciences 17, 235-237 (1996)].
Vasopressin V1a Receptor Cell Lines:
On the day before the assay, the cells are plated out in culture medium (DMEM/F12, 2% FCS, 2 mM glutamine, 10 mM HEPES, 5 μg/ml coelenterazine) in 384-well microtiter plates and kept in a cell incubator (96% humidity, 5% v/v CO2, 37° C.). On the day of the assay, test compounds in various concentrations are placed for 10 minutes in the wells of the microtiter plate before the agonist [Arg^8]-vasopressin at EC50 concentration is added. The resulting light signal is measured immediately in a luminometer.
(§3) Table 1A below lists individual IC50 values for the compounds of the invention (including racemic mixtures as well as separated enantiomers) that were obtained from cell lines transfected with the human V1a or V2 receptor: […]

human V2 receptor = biological target: T2, human V2 receptor (Homo sapiens, UniProt P30518); assay: Cellular in vitro assay for determining vasopressin receptor activity (V2 cell line, CRE-luciferase); type: cell-based; conditions: CHO cell line transfected with human V2 receptor; antagonism of [Arg8]-vasopressin at EC50; Table 1A, compounds of the invention; read-out: IC50 hV2
T2 construct: expressed in transfected cells; host or cells: CHO K1 (ATCC) line expressing firefly luciferase under a CRE-responsive promoter
T2 sequence (P30518 whole entry): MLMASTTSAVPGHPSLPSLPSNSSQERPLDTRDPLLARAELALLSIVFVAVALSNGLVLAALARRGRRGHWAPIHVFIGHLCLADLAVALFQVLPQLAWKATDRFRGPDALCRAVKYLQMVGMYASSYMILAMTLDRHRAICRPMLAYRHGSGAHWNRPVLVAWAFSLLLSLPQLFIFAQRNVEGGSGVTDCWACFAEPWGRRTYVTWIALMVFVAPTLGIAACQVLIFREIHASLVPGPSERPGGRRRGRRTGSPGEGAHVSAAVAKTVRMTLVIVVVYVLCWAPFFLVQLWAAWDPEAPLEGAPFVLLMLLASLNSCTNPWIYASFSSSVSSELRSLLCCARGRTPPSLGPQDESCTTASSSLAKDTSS
Description: as §1, §2
Vasopressin V2 Receptor Cell Lines:
On the day before the assay, the cells are plated out in culture medium (DMEM/F12, 2% FCS, 2 mM glutamine, 10 mM HEPES) in 384-well microtiter plates and kept in a cell incubator (96% humidity, 5% v/v CO2, 37° C.). On the day of the assay, test compounds in various concentrations and the agonist [Arg^s]-vasopressin at EC50 concentration are added together to the wells, and plates are incubated for 3 hours in a cell incubator. Upon addition of the cell lysis reagent Triton™ and the substrate luciferin, luminescence of firefly luciferase is measured in a luminometer.
as §3

Row | IC50 (human V1a receptor) [nM] | IC50 (human V2 receptor) [nM] | ratio IC50 hV2/hV1a (human V1a receptor) | Structure (SMILES)
1 | 13.5 | 637 |  | NC(=O)c1nc(Cn2nc(-c3ccc(Cl)cc3)n(CC(=O)C(F)(F)F)c2=O)nn1-c1ncccc1Br [Example 15, 1-(3-Bromopyridin-2-yl)-3-{[3-(4-chlorophenyl)-5-oxo-4-(3,3,3-trifluoro-2-oxopropyl)-4,5-dihydro-1H-1,2,4-triazol-1-yl]methyl}-1H-1,2,4-triazole-5-carboxamide]
2 | 25.5 | 892 | 35.0 | CCOC(=O)c1ccncc1-n1nc(Cn2nc(-c3ccc(Cl)cc3)n(C[C@H](O)C(F)(F)F)c2=O)nc1C(N)=O [Example 8, Ethyl 3-[5-carbamoyl-3-({3-(4-chlorophenyl)-5-oxo-4-[(2S)-3,3,3-trifluoro-2-hydroxypropyl]-4,5-dihydro-1H-1,2,4-triazol-1-yl}methyl)-1H-1,2,4-triazol-1-yl]isonicotinate]
3 | 1.2 | 170 |  | NC(=O)c1nc(Cn2nc(-c3ccc(Cl)cc3)n(C[C@H](O)C(F)(F)F)c2=O)nn1-c1ncccc1C(F)(F)F [Example 2, 3-({3-(4-Chlorophenyl)-5-oxo-4-[(2S)-3,3,3-trifluoro-2-hydroxypropyl]-4,5-dihydro-1H-1,2,4-triazol-1-yl}methyl)-1-[3-(trifluoromethyl)pyridin-2-yl]-1H-1,2,4-triazole-5-carboxamide]
4 | 2.5 | 293 |  | NC(=O)c1nc(Cn2nc(-c3ccc(Cl)cc3)n(C[C@H](O)C(F)(F)F)c2=O)nn1-c1cnccc1C(F)(F)F [Example 7, 3-({3-(4-Chlorophenyl)-5-oxo-4-[(2S)-3,3,3-trifluoro-2-hydroxypropyl]-4,5-dihydro-1H-1,2,4-triazol-1-yl}methyl)-1-[4-(trifluoromethyl)pyridin-3-yl]-1H-1,2,4-triazole-5-carboxamide]
5 | 1.02 | 39 |  | NC(=O)c1nc(Cn2nc(-c3ccc(Cl)cc3)n(C[C@H](O)C(F)(F)F)c2=O)nn1-c1ncccc1Cl [Example 1, 3-({3-(4-Chlorophenyl)-5-oxo-4-[(2S)-3,3,3-trifluoro-2-hydroxypropyl]-4,5-dihydro-1H-1,2,4-triazol-1-yl}methyl)-1-(3-chloropyridin-2-yl)-1H-1,2,4-triazole-5-carboxamide]
6 |  |  | 66.0 | NC(=O)c1nc(Cn2nc(-c3ccc(Cl)cc3)n(CC(=O)C(F)(F)F)c2=O)nn1-c1ncccc1C(F)(F)F [Example 17, 3-{[3-(4-Chlorophenyl)-5-oxo-4-(3,3,3-trifluoro-2-oxopropyl)-4,5-dihydro-H-1,2,4-triazol-1-yl]methyl}-1-[3-(trifluoromethyl)pyridin-2-yl]-1H-1,2,4-triazole-5-carboxamide]
7 | 5.2 | 104 | 20.0 | NC(=O)c1nc(Cn2nc(-c3ccc(Cl)cc3)n(CC(=O)C(F)(F)F)c2=O)nn1-c1ncccc1Cl [Example 14, 3-{[3-(4-Chlorophenyl)-5-oxo-4-(3,3,3-trifluoro-2-oxopropyl)-4,5-dihydro-H-1,2,4-triazol-1-yl]methyl}-1-(3-chloropyridin-2-yl)-1H-1,2,4-triazole-5-carboxamide]
8 | 0.57 | 25 |  | NC(=O)c1nc(Cn2nc(-c3ccc(Cl)cc3)n(C[C@H](O)C(F)(F)F)c2=O)nn1-c1cnccc1Cl [Example 6, 3-({3-(4-Chlorophenyl)-5-oxo-4-[(2S)-3,3,3-trifluoro-2-hydroxypropyl]-4,5-dihydro-1H-1,2,4-triazol-1-yl}methyl)-1-(4-chloropyridin-3-yl)-1H-1,2,4-triazole-5-carboxamide]
9 | 14.5 | 1240 |  | CCOC(=O)c1cccnc1-n1nc(Cn2nc(-c3ccc(Cl)cc3)n(C[C@H](O)C(F)(F)F)c2=O)nc1C(N)=O [Example 5, Ethyl 2-[5-carbamoyl-3-({3-(4-chlorophenyl)-5-oxo-4-[(2S)-3,3,3-trifluoro-2-hydroxypropyl]-4,5-dihydro-1H-1,2,4-triazol-1-yl}methyl)-1H-1,2,4-triazol-1-yl]nicotinate]
10 | 3.45 | 860 |  | NC(=O)c1nc(Cn2nc(-c3ccc(Cl)cc3)n(C[C@@H](O)C(F)(F)F)c2=O)nn1-c1cnccc1Cl [Example 12, 3-({3-(4-Chlorophenyl)-5-oxo-4-[(2R)-3,3,3-trifluoro-2-hydroxypropyl]-4,5-dihydro-H-1,2,4-triazol-1-yl}methyl)-1-(4-chloropyridin-3-yl)-1H-1,2,4-triazole-5-carboxamide]
11 | 1.23 | 89.3 |  | NC(=O)c1nc(Cn2nc(-c3ccc(Cl)cc3)n(C[C@H](O)C(F)(F)F)c2=O)nn1-c1ncccc1Br [Example 4, 1-(3-Bromopyridin-2-yl)-3-({3-(4-chlorophenyl)-5-oxo-4-[(2S)-3,3,3-trifluoro-2-hydroxypropyl]-4,5-dihydro-1H-1,2,4-triazol-1-yl}methyl)-1H-1,2,4-triazole-5-carboxamide]
12 | 1.6 | 690 |  | NC(=O)c1nc(Cn2nc(-c3ccc(Cl)cc3)n(C[C@@H](O)C(F)(F)F)c2=O)nn1-c1cnccc1C(F)(F)F [Example 13, 3-({3-(4-Chlorophenyl)-5-oxo-4-[(2R)-3,3,3-trifluoro-2-hydroxypropyl]-4,5-dihydro-H-1,2,4-triazol-1-yl}methyl)-1-[4-(trifluoromethyl)pyridin-3-yl]-1H-1,2,4-triazole-5-carboxamide]
13 | 75 | 2250 | 30.0 | NC(=O)c1cccnc1-n1nc(Cn2nc(-c3ccc(Cl)cc3)n(C[C@H](O)C(F)(F)F)c2=O)nc1C(N)=O [Example 9, 2-[5-carbamoyl-3-({3-(4-chlorophenyl)-5-oxo-4-[(2S)-3,3,3-trifluoro-2-hydroxypropyl]-4,5-dihydro-1H-1,2,4-triazol-1-yl}methyl)-1H-1,2,4-triazol-1-yl]nicotinamide]
14 | 3.1 | 610 |  | NC(=O)c1nc(Cn2nc(-c3ccc(Cl)cc3)n(C[C@@H](O)C(F)(F)F)c2=O)nn1-c1ncccc1C(F)(F)F [Example 11, 3-({3-(4-Chlorophenyl)-5-oxo-4-[(2R)-3,3,3-trifluoro-2-hydroxypropyl]-4,5-dihydro-1H-1,2,4-triazol-1-yl}methyl)-1-[3-(trifluoromethyl)pyridin-2-yl]-1H-1,2,4-triazole-5-carboxamide]
15 | 6.8 | 790 |  | NC(=O)c1nc(Cn2nc(-c3ccc(Cl)cc3)n(C[C@@H](O)C(F)(F)F)c2=O)nn1-c1ncccc1Cl [Example 10, 3-({3-(4-Chlorophenyl)-5-oxo-4-[(2R)-3,3,3-trifluoro-2-hydroxypropyl]-4,5-dihydro-1H-1,2,4-triazol-1-yl}methyl)-1-(3-chloropyridin-2-yl)-1H-1,2,4-triazole-5-carboxamide]
16 | 1.4 | 75 |  | NC(=O)c1nc(Cn2nc(-c3ccc(Cl)cc3)n(CC(=O)C(F)(F)F)c2=O)nn1-c1cnccc1Cl [Example 16, 3-{[3-(4-Chlorophenyl)-5-oxo-4-(3,3,3-trifluoro-2-oxopropyl)-4,5-dihydro-1H-1,2,4-triazol-1-yl]methyl}-1-(4-chloropyridin-3-yl)-1H-1,2,4-triazole-5-carboxamide]
17 | 16 | 875 |  | NC(=O)c1nc(Cn2nc(-c3ccc(Cl)cc3)n(C[C@H](O)C(F)(F)F)c2=O)nn1-c1ncccc1OC(F)(F)F [Example 3, 3-({3-(4-Chlorophenyl)-5-oxo-4-[(2S)-3,3,3-trifluoro-2-hydroxypropyl]-4,5-dihydro-1H-1,2,4-triazol-1-yl}methyl)-1-[3-(trifluoromethoxy)pyridin-2-yl]-1H-1,2,4-triazole-5-carboxamide]
